Reference: patent US20240101548A1, “HYDROXAMATE COMPOUND, PREPARATION METHOD THEREFOR AND APPLICATION THEREOF” (SHENZHEN CHIPSCREEN BIOSCIENCES CO., LTD., priority 2020, published 2024)
Like-named read-outs stand apart in the source and are kept apart here.

Key:
Format in all cases: cell-based, human
[1] = tested on: EPO-induced JAK2 signal pathway; test: EPO-induced proliferation of UT-7 cells (JAK2 signal); settings: Homo sapiens, UT7; UT-7 cell proliferation, EPO 10 ng/mL, 72 hours; read-out: Inhibition activity IC50 on EPO-induced JAK2 signal pathway
Method in brief: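 UT-7 cells (15000/well) stimulated with 10 ng/mL human recombinant EPO plus compound at final 0, 100, 1000 or 10000 nM, 72 h at 37° C., 5% CO2. Proliferation by alamarBlue fluorescence (Ex530/Em590); inhibition normalised to no-cytokine/no-compound (0) and EPO-only (100) wells, […] derived from dose-inhibition.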

[2] = tested on: IL-10-induced JAK1/TYK2 signal pathway; test: IL-10-induced JAK1/TYK2 signal pathway STAT3-Luc reporter gene assay in U2OS cells; settings: Homo sapiens, U2OS cells, STAT3-Luc reporter, IL-10 10 ng/mL, read-out: Half inhibition dose (IC50) on IL-10-induced JAK1/TYK2 signal pathway
Method in brief: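 U2OS cells co-transfected with IL-10R1-EGFP and STAT3-luciferase reporter plasmids; after 24 h, compound added (0–300 nM) for 6 h before 10 ng/mL human IL-10, then 24 h culture. Luciferase signal normalised to GFP for transfection efficiency; IC50 from inhibition rates.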

[3] = tested on: IL-2-induced JAK1/JAK3 signal pathway; test: IL-2-induced proliferation of KHYG-1 cells (JAK1/JAK3 signal); settings: Homo sapiens, read-out: Inhibition activity IC50 on IL-2-induced JAK1/JAK3 signal pathway
Method in brief: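 KHYG-1 NK lymphoma cells were cultured with IL-2 and test compound at various doses for 72 h at 37 °C and 5% CO2, and proliferation was read with alamarBlue fluorescence. Inhibition was normalized to wells without compound or cytokine (0%) and IL-2 wells without compound (100%), and C50 was derived from the dose-inhibition data.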

[4] = KHYG-1 cell proliferation, IL-2 10 ng/mL, 72 hours

Row | SMILES | IC50 [1] [µM] | IC50 ([2]; U2OS) [nM] | IC50 [3, 4] [µM] | IC50 [2] [nM] | IC50 ([3]; KHYG-1, 72 h) [µM]
1 | CCONC(=O)c1cnc(Nc2cc(C)nc(C)n2)cc1Nc1cc(F)c(C)cc1N(C)S(C)(=O)=O [Example 191, 6-((2,6-dimethylpyrimidin-4-yl)amino)-N-ethoxy-4-((5-fluoro-4-methyl-2-(N-methylmethanesulfonamido)phenyl)amino)nicotinamide] | > 10 | 0.653 | > 10 | – | –
2 | CCONC(=O)c1cnc(Nc2cc(C)nc(C)n2)cc1Nc1ccc(F)cc1N(C)S(=O)(=O)C1CC1 [Example 183] | > 10 | 0.796 | > 10 | – | –
3 | CONC(=O)c1cnc(NC(=O)C2CC2)cc1Nc1ccc(OCC2CC2)cc1N(C)S(C)(=O)=O [Example 63, 6-(cyclopropylcarboxamido)-4-((4-(cyclopropylmethoxy)-2-(N-methylmethanesulfonamido)phenyl)amino)-N-methoxy nicotinamide] | > 10 | 0.865 | > 10 | – | –
4 | CCONC(=O)c1cnc(Nc2cccnn2)cc1Nc1ccc(C2CC2)cc1N(C)S(C)(=O)=O [Example 153, 4-((4-cyclopropyl-2-(N-methylmethanesulfonamido)phenyl)amino)-N-ethoxy-6-(pyridazin-3-ylamino)nicotinamide] | > 10 | 1.51 | > 10 | – | –
5 | CCONC(=O)c1cnc(Nc2ccc(F)nc2C)cc1Nc1ccc(C2CC2)cc1N(C)S(C)(=O)=O [Example 223, 4-((4-cyclopropyl-2-(N-methylmethanesulfonamido)phenyl)amino)-N-ethoxy-6-((6-fluoro-2-methylpyridin-3-yl)amino)nicotinamide] | > 10 | 0.172 | > 10 | – | –
6 | CCONC(=O)c1cnc(Nc2cc(C)nc(C)n2)cc1Nc1ccc(OC)cc1N(C)S(C)(=O)=O [Example 131, 6-((2,6-dimethylpyrimidin-4-yl)amino)-N-ethoxy-4-((4-methoxy-2-(N-methylmethanesulfonamido)phenyl)amino)nicotinamide] | > 10 | 0.572 | > 10 | – | –
7 | CONC(=O)c1cnc(Nc2ccc(C#N)cn2)cc1Nc1ccc(C2CC2)cc1N(C)S(C)(=O)=O [Example 111, 4-((4-cyclopropyl-2-(N-methylmethanesulfonamido)phenyl)amino)-6-((5-cyanopyridin-2-yl)amino)-N-methoxy nicotinamide] | > 10 | 1.09 | > 10 | – | –
8 | CCONC(=O)c1cnc(Nc2cccc(F)n2)cc1Nc1ccccc1NS(=O)(=O)C1CC1 [Example 116, 4-((2-(cyclopropylsulfonamido)phenyl)amino)-N-ethoxy-6-((6-fluoropyridin-2-yl)amino)nicotinamide] | > 10 | – | – | 0.471 | > 10
9 | CCONC(=O)c1cnc(NC(=O)C2CC2)cc1Nc1cc(F)cc(-c2ncc(F)cn2)c1OC [Example 210, 6-(cyclopropylcarboxamido)-N-ethoxy-4-((5-fluoro-3-(5-fluoropyrimidin-2-yl)-2-methoxyphenyl)amino)nicotinamide] | > 10 | 0.958 | > 10 | – | –
10 | C#Cc1ccc(Nc2cc(Nc3ccc(F)cn3)ncc2C(=O)NOCC)c(N(C)S(C)(=O)=O)c1 [Example 144, N-ethoxy-4-((4-ethynyl-2-(N-methylmethanesulfonamido)phenyl)amino)-6-(5-fluoropyridin-2-ylamino)nicotinamide] | > 10 | 0.969 | > 10 | – | –
11 | CCONC(=O)c1cnc(NC(=O)C2CC2)cc1Nc1cccc(-c2ncn(C)n2)c1OC [Example 166, 6-(cyclopropylcarboxamido)-N-ethoxy-4-((2-methoxy-3-(1-methyl-1H-1,2,4-triazol-3-yl)phenyl)amino)nicotinamide] | > 10 | 1.51 | > 10 | – | –
12 | CN(c1cc(C2CC2)ccc1Nc1cc(Nc2cccc(F)n2)ncc1C(=O)NOCC(F)(F)F)S(C)(=O)=O [Example 119, 4-((4-cyclopropyl-2-(N-methylmethanesulfonamido)phenyl)amino)-6-((6-fluoropyridin-2-yl)amino)-N-(2,2,2-trifluoroethoxy)nicotinamide] | > 10 | 1.53 | > 10 | – | –
13 | CCONC(=O)c1cnc(Nc2ccc(F)cn2)cc1Nc1ccc(N2CCOCC2)cc1N(C)S(C)(=O)=O [Example 130] | > 10 | 0.802 | > 10 | – | –
14 | CONC(=O)c1cnc(NC(=O)C2CC2)cc1Nc1cccc(-c2ncn(C)n2)c1OC [Example 69, 6-(cyclopropylcarboxamido)-N-methoxy-4-((2-methoxy-3-(1-methyl-1H-1,2,4-triazol-3-yl)phenyl)amino)-nicotinamide] | > 10 | – | > 10 | 2.78 | –
15 | CCONC(=O)c1cnc(Nc2cnccn2)cc1Nc1ccc(C2CC2)cc1N(C)S(C)(=O)=O [Example 145, 4-((4-cyclopropyl-2-(N-methylmethanesulfonamido)phenyl)amino)-N-ethoxy-6-(pyrazin-2-ylamino)nicotinamide] | > 10 | 0.301 | > 10 | – | –
16 | CCONC(=O)c1cnc(Nc2cc(C)nc(C)n2)cc1Nc1cc(F)cc(-c2cnccn2)c1OC [Example 258, 6-((2,6-dimethylpyrimidin-4-yl)amino)-N-ethoxy-4-((5-fluoro-2-methoxy-3-(pyrazin-2-yl)phenyl)amino)nicotinamide] | > 10 | 2.15 | > 10 | – | –
17 | CCONC(=O)c1cnc(Nc2nc(C)cs2)cc1Nc1cc(F)c(C2CC2)cc1N(C)S(C)(=O)=O [Example 170, 4-((4-cyclopropyl-5-fluoro-2-(N-methylmethanesulfonamido)phenyl)amino)-N-ethoxy-6-((4-methylthiazol-2-yl)amino)nicotinamide] | > 10 | 1.5 | > 10 | – | –
18 | CONC(=O)c1cnc(NC(=O)C2CC2)cc1Nc1ccc(C(F)(F)F)cc1N(C)S(C)(=O)=O [Example 10, 6-(cyclopropylcarboxamido)-N-methoxy-4-((2-(N-methylmethanesulfonamido)-4-(trifluoromethyl)phenyl)amino)nicotinamide] | > 10 | – | > 10 | 1.18 | –
19 | [2H]C([2H])([2H])ONC(=O)c1cnc(Nc2cccc(F)n2)cc1Nc1ccc(C2CC2)cc1N(C)S(C)(=O)=O [Example 68, 4-((4-cyclopropyl-2-(N-methylmethanesulfonamido)phenyl)amino)-6-((6-fluoropyridin-2-yl)amino)-N-(methoxy-d3)nicotinamide] | > 10 | 1.31 | > 10 | – | –
20 | CONC(=O)c1cnc(NC(=O)C2CC2)cc1Nc1ccc(C)cc1N(C)S(C)(=O)=O [Example 81, 6-(cyclopropylcarboxamido)-N-methoxy-4-((4-methyl-2-(N-methylmethanesulfonamido)phenyl)amino)nicotinamide] | > 10 | – | > 10 | 1.5 | –
21 | CONC(=O)c1cnc(Nc2cc(C)c(F)cn2)cc1Nc1ccc(C2CC2)cc1N(C)S(C)(=O)=O [Example 110] | > 10 | 1.51 | > 10 | – | –
22 | CCONC(=O)c1cnc(Nc2cccc(C)n2)cc1Nc1ccc(-c2ccnn2C)cc1OC [Example 222, N-ethoxy-4-((2-methoxy-4-(1-methyl-1H-pyrazol-5-yl)phenyl)amino)-6-((6-methylpyridin-2-yl)amino)nicotinamide] | > 10 | 1.09 | > 10 | – | –
23 | CCONC(=O)c1cnc(Nc2ccnc(C)n2)cc1Nc1cccc(-c2ncc(F)cn2)c1OC [Example 243, N-ethoxy-4-((3-(5-fluoropyrimidin-2-yl)-2-methoxyphenyl)amino)-6-((2-methylpyrimidin-4-yl)amino)nicotinamide] | > 10 | 0.507 | > 10 | – | –
24 | CCONC(=O)c1cnc(Nc2cncc(F)c2)cc1Nc1ccc(C2CC2)cc1N(C)S(C)(=O)=O [Example 236, 4-((4-cyclopropyl-2-(N-methylmethanesulfonamido)phenyl)amino)-N-ethoxy-6-((5-fluoropyridin-3-yl)amino)nicotinamide] | > 10 | 0.587 | > 10 | – | –
25 | CCONC(=O)c1cnc(Nc2ccncn2)cc1Nc1ccc(C2CC2)cc1N(C)S(=O)(=O)C1CC1 [Example 190, 4-((4-cyclopropyl-2-(N-methylcyclopropylsulfonamido)phenyl)amino)-N-ethoxy-6-(pyrimidin-4-ylamino)nicotinamide] | > 10 | 2.73 | > 10 | – | –
26 | CCONC(=O)c1cnc(Nc2cnccn2)cc1Nc1cc(F)c(C2CC2)cc1N(C)S(C)(=O)=O [Example 167, 4-((4-cyclopropyl-5-fluoro-2-(N-methylmethanesulfonamido)phenyl)amino)-N-ethoxy-6-(pyrazin-2-ylamino)nicotinamide] | > 10 | 1.51 | > 10 | – | –
